Measured values reported in patent US20110130425A1, “Use of H3 Histaminergic Agonists for the Treatment of Addiction to Drugs of Abuse” (priority 2009, published 2011).
Entries after “also recorded” stand apart in the source; their conditions may differ.

Legend:
[1] = test system: cocaine craving; assay: Extinction phase: cocaine craving (lever pressing with drug no longer available); assay type: in vivo, rat
Source text: II. Extinction Phase: In this phase, the drug ceases to be available to the rats. During the extinction session, the animal learns, suddenly, that the drug can no longer be obtained by pressing the lever, which directs the rat toward an initial impulse of drug seeking. During the extinction session, one estimates the degree of the irrepressible desire of the rat for the drug (craving). After repeated extinction sessions, animals learn to reduce lever pressing and are ready for relapse testing.
Training was conducted in Skinner cages. Rats were trained to tap a lever to obtain saccharose. […] Once the training to obtain saccharose was complete, the rats had access to food ad libitum during the rest of the procedure. An intravenous catheter was subsequently implanted in the jugular vein. The catheter passed underneath the skin to reach the shoulder of the animal, where it was secured with a surgical gauze.
After 3-4 days of recovery, the animals were subjected, in the Skinner cages, to daily sessions of intravenous self-administration of 0.5 mg/kg doses of cocaine each time that they pressed an active lever. […] When this second lever was pressed by the animal, no drug was administered. The self-administration sessions lasted for 2 hours a day, 5 days a week, for at least six weeks.
The third self-administration protocol required the animals to press the lever five times to obtain the cocaine reinforcement.
Rats that succeeded in learning to self-administer the drug according to all three protocols described above were selected to test out the efficiency of the treatment with H3 histaminergic agonists in the extinction and relapse phases.
Drug craving, in this particular case cocaine craving, associated with the unexpected commencement of the extinction phase was studied once the animals had been self-administering the drug daily for at least six weeks.
The experiments began with the self-administration of cocaine for one hour. After this initial self-administration, the rats were divided into two groups. […]

[2] = test system: cocaine self-administration; assay: Same protocol with lever pressing rewarded with drug during the second hour (resumption of self-administration); assay type: in vivo, rat
Description: In order to differentiate the drug seeking from the reward phenomenon, the same protocol as described above was used, with the proviso that the pressing of the lever was rewarded with drug during the second hour. In the control experiments, when the rats were treated with saline solution, a relatively stable pressing of the lever over the course of time was observed (FIG. 3).
These same rats, days afterwards, were subjected in random order to treatment with saline solution or imetit in doses of 10 mg/kg. After these treatments, the rats recovered stability by means of three sessions of self-administration of drug. […] This decrease was significant for the first 40 minutes of the self-administration period, as compared to the control rats that were pretreated with a saline solution. Thus, over the course of time, the desire for the drug reappeared.

[3] = test system: reinforcement produced by cocaine; assay: Reinforcement phase: cocaine self-administration dose/response; assay type: in vivo, rat; conditions: rats
[4] = test system: relapse into cocaine seeking; assay: Relapse phase: rehabilitation test, relapse induced by a single dose of cocaine; assay type: in vivo, rat; conditions: rats
Source text: III. Relapse Phase: The relapse phase is studied by using a rehabilitation test. In this phase, the desire of the rats for the drug is again induced by the administration of a single dose of drug. At this instant, the rat again feels the desire to obtain the drug, and so it again begins to press on the lever to obtain the drug, but the drug is not available to the animal.
The behavior of the rats was also studied during the relapse phase, after the animals had gone through the extinction phase. In the extinction phase, the animals received no reward (dose of cocaine) when they pressed the lever. After a minimum of six extinction sessions, lasting 2 hours each session, carried out on consecutive days, the lever-pressing behavior of the rats diminished at least 20 times in comparison to the start of the extinction sessions.
When the number of times that the rats pressed the lever decreased, the animals were subjected to 4 hour rehabilitation sessions (i.e., relapse sessions). These rehabilitation sessions consisted initially of extinction sessions of 3 hours, followed by the automatic release, by an injection, of a saline solution or different doses of cocaine. During the fourth hour, the behavior of the animals was studied in regard to the number of times that they pressed the lever after the administration of the different doses of cocaine (0 mg/kg, 0.5 mg/kg and 2 mg/kg). The number of times that the lever was pressed increased in proportion to the dose of cocaine administered (cocaine at 0.5 mg/kg or 2 mg/kg administered intravenously, or saline in controls) (FIG. 8). However, this increase in the number of times that the animals pressed the lever was not rewarded with the administration of more cocaine. The number of times that the rats pressed the lever was indicative of the rat's need to find the drug. Even so, the pressing of the lever was not rewarded with more cocaine, which differentiates this stage from that corresponding to self-administration. […]

[5] = test system: reinforcing effects of methamphetamine; conditions: rat self-administration model; Munzar et al., 2004; cited from earlier work

Structure (SMILES) | tapping of the lever in the first 20 minutes of extinction ([1]; imetit 3 mg/kg i.v. single dose, vs control rats) | latency (time until the rats pressed the lever for the first time) at start of extinction ([1]; imetit 10 mg/kg i.v. single dose, vs control) | impulsiveness in tapping the lever to obtain reward in the first 20 minutes of extinction ([1]; imetit 10 mg/kg i.v. single dose, vs control rats) | latency (time until first lever press) on resumption of self-administration ([2]; imetit 10 mg/kg i.v. pretreatment, vs control, rats) | decrease in number of times the rats tapped the lever during the start of the self-administration phase ([2]; imetit 10 mg/kg pretreatment, vs saline) | period of the self-administration phase over which the decrease in lever tapping was significant ([2]; imetit 10 mg/kg pretreatment, vs saline, rats) [min] | tendency to seek cocaine (self-injections in 2 hours) ([3]; imetit 3 mg/kg single dose one hour before reinforcement, even at 0.03 mg/kg cocaine) | lever pressing after relapse induced by a single dose of cocaine ([4]; imetit 3 mg/kg one hour before, cocaine 0.5 mg/kg, vs saline) | reinforcement produced by cocaine (self-injections in 2 hours) ([3]; thioperamide 3 mg/kg s.c. one hour before, cocaine 0-1.0 mg/kg per injection) | lever pressing after relapse induced by a reminder dose of cocaine ([4]; thioperamide 3 mg/kg s.c. or 6 mg/kg, one hour before, cocaine 0.5 or 2 mg/kg) | reinforcing effects of methamphetamine [5]
N=C(N)SCCc1cnc[nH]1 [imetit] | did not cause a significant reduction | significantly increased; also recorded: increase in latency | significantly diminished | significantly increased | approximately 50% | 40 | diminished the tendency to seek cocaine; also recorded: self-administer less cocaine | caused a decrease in the pressing on the lever; also recorded: diminished significantly | – | – | –
S=C(NC1CCCCC1)N1CCC(c2cnc[nH]2)CC1 [thioperamide] | – | – | – | – | – | – | – | – | no significant increase | did not potentiate the rehabilitation; also recorded: does not produce a significant decline | potentiate the reinforcing effects
NC(=NCc1ccc(Cl)cc1)SCCCc1cnc[nH]1 [clobenpropit] | – | – | – | – | – | – | – | – | – | – | potentiate the reinforcing effects
